Here are results for 38 molecules from patent US8513462B2, “Pesticides and uses thereof” (Dow AgroSciences LLC, priority 2007, dated 2013).

The test system of series [1] is cotton aphid (Aphis gossypii). Description: Insecticidal test for cotton aphid in foliar spray assay. Type of series: in vivo. Particulars: 72 h, foliar spray on squash, Corrected % Control (Abbott) after 3 days, read-out: Rating against cotton aphid on squash (foliar spray). The protocol: (§1) The compounds identified in the foregoing examples were tested against cotton aphid using procedures described hereinafter. Insecticidal Test for Cotton Aphid (Aphis gossypii) in Foliar Spray Assay Squash seedlings with fully expanded cotyledon leaves were trimmed to one cotyledon per plant and infested with cotton aphid (wingless adults and nymphs) 1 day prior to chemical application. Each plant was examined before chemical application to ensure uniform infestation (ca. 30-70 aphids per plant). Compounds (2 mg) were dissolved in 2 ml of acetone:methanol (1:1) solvent, forming stock solutions of 1000 ppm. The stock solutions were diluted 5× with 0.025% Tween 20 in H2O to obtain a solution at 200 ppm. A hand-held Devilbiss aspirator type sprayer was used to apply the spray solutions until runoff to both sides of the squash cotyledon leaves. Four plants (4 replications) were used for each compound. Reference plants (solvent check) were sprayed with the diluent only. Treated plants were held in a holding room for 3 days at approximately 23° C. and 40% RH before the number of live aphids on each plant was recorded. Insecticidal activity was measured by Corrected % Control using Abbott's correction formula and presented in Table 1-Activity: Corrected % Control=100*(X−Y)/X • where X=No. of live aphids on solvent check plants • Y=No. of live aphids on treated plants Results are shown in Table 7. Insecticidal Test for Green Peach Aphid (Myzus persicae) in Foliar Spray Assay

Series [2] concerns green peach aphid (Myzus persicae). Briefly: Insecticidal test for green peach aphid in foliar spray assay. It counts as in vivo. Particulars: 72 h, foliar spray on cabbage, Corrected % Control (Abbott) after three days, read-out: Rating against green peach aphid on cabbage (foliar spray). The protocol:
as §1, with “Squash” for “The compounds identified in the foregoing examples were tested against cotton aphid using procedures described hereinafter. Insecticidal Test for Cotton Aphid (Aphis gossypii) in Foliar Spray Assay Squash”, “Assay Cabbage seedlings grown in 3-inch pots, with 2-3 small (3-5 cm) true leaves, were used as test substrate. The seedlings were infested with 20-50 green peach aphids (wingless adult and nymph) 1-2 days prior to chemical application. Four seedlings were used for each treatment. Compounds (2 mg) were dissolved in 2 ml of acetone:methanol (1:1) solvent, forming stock solutions of 1000 ppm. The stock solutions were diluted 5× with 0.025% Tween 20 in H2O to obtain a solution at 200 ppm. A hand-held Devilbiss aspirator sprayer was used for spraying a solution to both sides of cabbage leaves until runoff. Reference plants (solvent check) were sprayed with the diluent only. Treated plants were held in a holding room for three days at approximately 23° C. and 40% RH prior to grading. Evaluation was conducted by counting the number of live aphids per plant under a microscope. Insecticidal activity was measured by using Abbott's correction formula: Corrected % Control=100*(X−Y)/X • where X=No. of live aphids on solvent check plants • Y=No. of live aphids on treated plants” for “Assay”

Take `CC(c1ccc(C(F)(F)F)nc1)S(C)(=O)=Nc1ccccn1` (centres unmarked) [Compound 4, 3-[1-ethyl(N-(2-pyridine)-sulfoximinyl)(methyl)]-6-trifluoromethylpyridine]: the pest or weed control at 200 ppm is 80 to 100% in series [1] and below 80% in series [2]. `CC(c1ccc(C(F)(F)F)nc1)S(C)(=O)=Nc1nccs1` (centres unmarked) [Compound 6]: the pest or weed control at 200 ppm in series [1] and in series [2] was 80 to 100% in each case. As to `CC(c1ccc(C(F)(F)F)nc1)S(C)(=O)=Nc1ccc(Cl)cn1` (centres unmarked) [Compound 2, 3-[1-ethyl(N-(2-(5-chloro)pyridine)-sulfoximinyl)(methyl)]-6-trifluoromethylpyridine], the pest or weed control at 200 ppm in series [1] and in series [2] was 80 to 100% in each case.

Regarding `CC(c1ccc(C(F)(F)F)nc1)S(C)(=O)=Nc1nc(-c2ccc(Br)s2)cs1` (centres unmarked) [Compound 37], the melting point fell in the range of 160 to 165 °C. Moreover, the pest or weed control at 200 ppm in series [2] lay in the range of 80 to 100%. Consider `CC(c1ccc(C(F)(F)F)nc1)S(C)(=O)=Nc1ncccn1` (centres unmarked) [Compound 5], for which the pest or weed control at 200 ppm in series [1] was below 80%. For the molecule `CCOc1ccc(-c2csc(N=S(C)(=O)C(C)c3ccc(C(F)(F)F)nc3)n2)cc1` (centres unmarked) [Compound 46], the melting point was in the range of 105 to 110 °C. The pest or weed control at 200 ppm in series [2] is 80 to 100%. For `CC(c1ccc(C(F)(F)F)nc1)S(C)(=O)=Nc1nc(-c2ccc(C(F)(F)F)cc2)cs1` (centres unmarked) [Compound 45] the same measures were 124 to 127 °C and 80 to 100%. Regarding `COc1ccc(-c2csc(N=S3(=O)CCCC3c3ccc(Cl)nc3)n2)cc1` (centres unmarked) [Compound 78], the melting point fell in the range of 88 to 94 °C. Further, the pest or weed control at 200 ppm in series [2] was below 80%. Turning to `CC(c1ccc(C(F)(F)F)nc1)S(C)(=O)=Nc1ccc(C(F)(F)F)cn1` (centres unmarked) [Compound 12], in series [1], the pest or weed control at 200 ppm was below 80%. `CC(c1ccc(C(F)(F)F)nc1)S(C)(=O)=Nc1nc(-c2ccc(Br)cc2)co1` (centres unmarked) [Compound 75] displayed a melting point of 134 to 137 °C. In addition, the pest or weed control at 200 ppm in series [2] is below 80%. The matching figures for `COc1ccccc1-c1csc(N=S(C)(=O)C(C)c2ccc(C(F)(F)F)nc2)n1` (centres unmarked) [Compound 51]: 72 to 77 °C and 80 to 100%. The matching figures for `CC(c1ccc(C(F)(F)F)nc1)S(C)(=O)=Nc1nc(C(F)(F)C(F)(F)F)cs1` (centres unmarked) [Compound 30]: 95 to 100 °C and 80 to 100%. For `CC(C)(C)c1csc(N=S2(=O)CCCC2c2ccc(Cl)nc2)n1` (centres unmarked) [Compound 76] the same measures were 77 to 81 °C and 80 to 100%. In turn, `CS(=O)(Cc1ccc(Cl)nc1)=Nc1nc(C(F)(F)F)cs1` (centres unmarked) [Compound 58] displayed a melting point of 122 to 125 °C. In addition, the pest or weed control at 200 ppm in series [2] lay in the range of 80 to 100%.

For `CC(c1ccc(C(F)(F)F)nc1)S(C)(=O)=Nc1nc(-c2ccccc2)cs1` (centres unmarked) [Compound 15], the melting point fell in the range of 88 to 93 °C. Besides, in series [2], the pest or weed control at 200 ppm was in the range of 80 to 100%.

In the case of `CC(c1ccc(C(F)(F)F)nc1)S(C)(=O)=Nc1nc(-c2nccs2)cs1` (centres unmarked) [Compound 39], the melting point fell in the range of 163 to 167 °C. In series [2], the pest or weed control at 200 ppm lay in the range of 80 to 100%.

The molecule `CCc1csc(N=S(C)(=O)Cc2ccc(C(F)(F)F)nc2)n1` (centres unmarked) [Compound 56] returned a melting point of 114 to 116 °C. The pest or weed control at 200 ppm in series [2] is 80 to 100%. The matching figures for `COc1cccc(-c2csc(N=S(C)(=O)C(C)c3ccc(C(F)(F)F)nc3)n2)c1` (centres unmarked) [Compound 44]: 107 to 110 °C and 80 to 100%.

In turn, `CC(c1ccc(C(F)(F)F)nc1)S(C)(=O)=Nc1nc(-c2ccc(OC(F)(F)F)cc2)cs1` (centres unmarked) [Compound 52] registered a melting point of 90 to 95 °C. For the same molecule, the pest or weed control at 200 ppm in series [2] was in the range of 80 to 100%. For `CS(=O)(Cc1ccc(C(F)(F)F)nc1)=Nc1nc(C(F)(F)F)cs1` (centres unmarked) [Compound 55] the same measures were 126 to 128 °C and 80 to 100%.

As for `CC(c1ccc(C(F)(F)F)nc1)S(C)(=O)=Nc1nc(-c2ccccn2)cs1` (centres unmarked) [Compound 35], the melting point was 134 to 141 °C. Further, the pest or weed control at 200 ppm in series [2] lay within 80 to 100%. In the case of `CC(c1ccc(C(F)(F)F)nc1)S(C)(=O)=Nc1nc(-c2ccc(C#N)cc2)cs1` (centres unmarked) [Compound 43], the melting point fell in the range of 78 to 80 °C. For the same molecule, the pest or weed control at 200 ppm in series [2] lay within 80 to 100%. `CC(c1ccc(C(F)(F)F)nc1)S(C)(=O)=Nc1nc(-c2ccsc2)cs1` (centres unmarked) [Compound 38] yielded a melting point of 168 to 173 °C. Moreover, in series [2], the pest or weed control at 200 ppm lay within 80 to 100%. The matching figures for `CC(c1ccc(C(F)(F)F)nc1)S(C)(=O)=Nc1nc(C(C)(C)C)cs1` (centres unmarked) [Compound 29]: 144 to 148 °C and 80 to 100%. The matching figures for `COc1ccc(-c2csc(N=S(C)(=O)Cc3ccc(C(F)(F)F)nc3)n2)cc1` (centres unmarked) [Compound 54]: 158 to 161 °C and below 80%. The matching figures for `CCc1csc(N=S(C)(=O)Cc2ccc(Cl)nc2)n1` (centres unmarked) [Compound 59]: 114 to 116 °C and 80 to 100%.

In turn, `COc1ccc(-c2csc(N=S(C)(=O)C(C)c3ccc(C(F)(F)F)nc3)n2)cc1OC` (centres unmarked) [Compound 48] showed a melting point of 153 to 160 °C. Further, in series [2], the pest or weed control at 200 ppm was in the range of 80 to 100%.

`CC(c1ccc(C(F)(F)F)nc1)S(C)(=O)=Nc1nc(-c2cccnc2)cs1` (centres unmarked) [Compound 33] registered a melting point of 178 to 182 °C. The pest or weed control at 200 ppm in series [2] lay in the range of 80 to 100%. For `CCc1csc(N=S2(=O)CCCC2c2ccc(Cl)nc2)n1` (centres unmarked) [Compound 77] the same measures were 67 to 71 °C and 80 to 100%. The matching figures for `CC(c1ccc(C(F)(F)F)nc1)S(C)(=O)=Nc1nc(C2CC2)cs1` (centres unmarked) [Compound 32]: 102 to 106 °C and below 80%. For `CC(c1ccc(C(F)(F)F)nc1)S(C)(=O)=Nc1nc(-c2ccc(F)cc2)cs1` (centres unmarked) [Compound 27, 5-{1-[methyl(4-(4-fluorophenyl)-1,3-thiazol-2-yl)sulfonimidoyl]ethyl}-2-(trifluoromethyl)pyridine] the same measures were 89 to 94 °C and 80 to 100%. Regarding `Cc1coc(N=S(C)(=O)C(C)c2ccc(C(F)(F)F)nc2)n1` (centres unmarked) [Compound 71], in series [2], the pest or weed control at 200 ppm was in the range of 80 to 100%.

`CC(c1ccc(C(F)(F)F)nc1)S(C)(=O)=Nc1nc(-c2ccc(Cl)s2)cs1` (centres unmarked) [Compound 41] yielded a melting point of 124 to 128 °C. In series [2], the pest or weed control at 200 ppm fell in the range of 80 to 100%.

Regarding `CCc1coc(N=S(C)(=O)C(C)c2ccc(C(F)(F)F)nc2)n1` (centres unmarked) [Compound 70, 5-{1-[methyl(4-ethyl-1,3-oxazol-2-yl)sulfonimidoyl]ethyl}-2-(trifluoromethyl)pyridine], the pest or weed control at 200 ppm in series [2] is 80 to 100%. On the same count and under the same terms, in the case of `CC(c1ccc(C(F)(F)F)nc1)S(C)(=O)=Nc1ccsc1[N+](=O)[O-]` (centres unmarked) [Compound 17] it was below 80%; in that of `CC(c1ccc(C(F)(F)F)nc1)S(C)(=O)=Nc1ncccc1F` (centres unmarked) [Compound 9], 80 to 100%. Still for that read-out and setting: with `Cc1cnc(N=S(C)(=O)C(C)c2ccc(C(F)(F)F)nc2)s1` (centres unmarked) [Compound 63, 5-{1-[methyl(5-methyl-1,3-thiazol-2-yl)sulfonimidoyl]ethyl}-2-(trifluoromethyl)pyridine] the figure was 80 to 100%; with `CC(c1ccc(C(F)(F)F)nc1)S(C)(=O)=Nc1nc(-c2ccc3c(c2)OCO3)cs1` (centres unmarked) [Compound 47], 80 to 100%.

The melting point is the temperature of the solid-liquid transition.
